Patent US20260193668A1, “NOVEL PEPTIDES AND USE THEREOF FOR MODULATING PROTEIN ACCUMULATION” (UNIVERSITE TOULOUSE III - PAUL SABATIER, priority 2022, published 2026)

These substances were tested on luciferase mRNA (assay: RNA-IP followed by PCR on plants treated with HA-tagged peptides). Conditions: anti-HA magnetic beads.
Format: binding, Arabidopsis thaliana
Description: Analysis of luciferase expression in A. thaliana constitutively expressing the LUC transgene. (a) Agarose gel after PCR amplification of RNA obtained by immunoprecipitation using anti-HA magnetic beads, followed by RT-PCR, on plants treated with the indicated peptide (SC-HA: Scrambled cPEPluc-HA; Luc-HA: cPEPluc-HA). (b) Relative expression of the luciferase transgene in plants treated with the indicated peptide, quantified by RT-qPCR. (c-e) Relative quantification of LUC in plants treated with the indicated peptide. (f, g) Ratio between induction and quantification of LUC in plants treated with cPEPluc compared to plants treated with Scrambled cPEPluc, using different peptide concentrations (f) or taken at different time points (g). (h) Transcriptomic analysis of plants treated with cPEPluc-HA compared to plants treated with Scrambled cPEPluc-HA. (i) Proteomic analysis of plants treated with cPEPluc-HA compared to plants treated with Scrambled cPEPluc-HA. Protein expression was analysed by Western blots and quantified using ImageJ.
RNA co-immunoprecipitation was adapted from Merret et al. (Plant Physiol. 174:1216-1225. 2017). 400 mg of tissue powder was incubated in 3 mL of lysis buffer (200 mM Tris, pH 9.0, 110 mM potassium acetate, 0.5% Triton X-100, 0.1% Tween© 20, 5 mM DTT, 1.5% protease inhibitor and 80 units·ml-1 RNasin). […]

Row | Substance | interaction with luciferase mRNA (RNA-IP followed by PCR)
1 | SEQ ID NO: 386: Scrambled peptide corresponding to HA-tagged cPEPluc (RNYKNGRTHLYPYDVPDYA; Scrambled cPEPluc-HA) [reference compound] | could not
2 | cPEPluc-HA: HA-tagged cPEPluc (KRYGLNTNHRYPYDVPDYA; cPEPluc-HA) | able to interact

These substances were tested on M. truncatula seedlings (assay: Formation of lateral roots of M. truncatula seedlings). Conditions: M. truncatula WT seedlings.
Format: in vivo, Medicago truncatula
Description: (a) FRET-FLIM analysis of the interaction between cPEPnsp1-FAM and NSP1 (left) or NSP1ΔcPEP (right) in planta. (b) qRT-PCR quantification of NSP1 expression in M. truncatula roots treated with cPEPnsp1 or Scrambled cPEPnsp1. (c) GUS quantification of peptide-treated M. truncatula roots carrying the Pro NSP1-NSP1-GUS fusion. (d, e) Quantification of NSP1 expression in N. benthamiana leaves after infiltration of different constructs: ‘wild type’ i.e. version of NSP1 wherein the cPEP sequence has been deleted (NSP1 ΔcPEP) or version of NSP1 wherein the cPEP sequence has been replaced by an artificial sequence (NSP1 ΔcPEP-cPEPartificial), with an empty vector (control) or cPEPnsp1 or cPEPartificial. (f, g) Formation of lateral roots of M. truncatula WT seedlings, nsp1 or overexpressing NSP1, in response to cPEPnsp1 or Scrambled cPEPnsp1. (h, i) Quantification of nodules on roots of M. truncatula roots treated with an irrelevant peptide or cPEPskl. […]
In order to verify whether cPEPs can target any protein, the activity of 12 cPEPs targeting 12 different proteins for which antibodies were available was studied and validated in three different plant species. The question was whether the increase in the quantity of proteins observed after treatment with cPEP was sufficient to modulate plant development. […]

Row | Substance | amount of lateral roots
3 | cPEPnsp1 (DYGTKSNIRS; cPEPnsp1_3) | decreased

Same assay, conditions: nsp1 mutant and NSP1-overexpressing M. truncatula

Row | Substance | sensitivity of lateral root formation to the peptide
4 | cPEPnsp1 (DYGTKSNIRS; cPEPnsp1_3) | insensitive

What follows are substances tested on Aphanomyces euteiches (assay: M. truncatula seedlings infected with A. euteiches). Conditions: 100 μM peptide.
Format: in vivo
Description: (a) FRET-FLIM analysis of the interaction between cPEPnsp1-FAM and NSP1 (left) or NSP1ΔcPEP (right) in planta. (b) qRT-PCR quantification of NSP1 expression in M. truncatula roots treated with cPEPnsp1 or Scrambled cPEPnsp1. (c) GUS quantification of peptide-treated M. truncatula roots carrying the Pro NSP1-NSP1-GUS fusion. (d, e) Quantification of NSP1 expression in N. benthamiana leaves after infiltration of different constructs: ‘wild type’ i.e. version of NSP1 wherein the cPEP sequence has been deleted (NSP1 ΔcPEP) or version of NSP1 wherein the cPEP sequence has been replaced by an artificial sequence (NSP1 ΔcPEP-cPEPartificial), with an empty vector (control) or cPEPnsp1 or cPEPartificial. (f, g) Formation of lateral roots of M. truncatula WT seedlings, nsp1 or overexpressing NSP1, in response to cPEPnsp1 or Scrambled cPEPnsp1. (h, i) Quantification of nodules on roots of M. truncatula roots treated with an irrelevant peptide or cPEPskl. (j) Root development of M. truncatula seedlings infected with A. euteiches and treated with an irrelevant peptide or cPEPrh10. (k) Relative expression of A. euteiches α-tubulin in M. truncatula seedlings infected with A. euteiches and treated with an irrelevant peptide or cPEPrh10.
Quantification of mRNAs was performed by qRT-PCR using appropriate primer pairs selected from the sequences: SEQ ID NOs: 367 to 374. […]

Row | Substance | root development (resistance to the pathogen)
5 | SEQ ID NO: 412 (QRLSLRNPLK; cPEPrh10) | increased

Same assay, conditions: 100 μM peptide, 7 days after inoculation

Row | Substance | expression of A. euteiches α-tubulin in roots
6 | SEQ ID NO: 412 (QRLSLRNPLK; cPEPrh10) | decreased

These substances were tested on A. thaliana seedlings (assay: Relative chlorophyll content of A. thaliana). Conditions: sprayed with 10 μM peptide three times a week.
Format: in vivo, Arabidopsis thaliana
Experimental: (§1) (a, b) Length of primary roots of A. thaliana seedlings treated with a Scrambled cPEPdcl1 or with a cPEPdcl1. (c) Relative chlorophyll content of A. thaliana seedlings treated with the corresponding peptide. (d) Resumption of growth of A. thaliana seedlings after heat shock at 45° C. for 45 min and treated with the corresponding peptide. (e) Relative lesion area of A. thaliana seedlings infected with B. cinerea and treated with the indicated peptide. (f) Measurement of the flowering day of A. thaliana plants treated with the indicated peptides. (g, h) Flowering day of A. thaliana plants treated with an irrelevant peptide or a mixture of cPEPs (targeting EIN2, BR11, BAK1 and WUS). (i, j) Leaf area of A. thaliana plants treated with an irrelevant peptide or a mixture of cPEPs (targeting EIN2, BR11, BAK1 and WUS).
N. benthamiana plants were treated by spraying the leaves 24 h before harvesting. For Luc assays, 100 μL of MS/2 liquid medium containing the peptides was added to each well. 5 μL of luciferin was added and luciferase activity was read 30 min later using a spectrophotometer. […] To quantify the protein level induced by cPEPs in Arabidopsis, rosettes were sprayed daily with 100 μM of peptide or its control for 5 days. […] Chlorophyll content was measured using the SPAD chlorophylometer (Konica Minolta). Leaf area was measured using ImageJ software. […]

Row | Substance | chlorophyll content
7 | SEQ ID NO: 407 (EWKKVKGKMS; cPEPsgr1) | increasing
8 | SEQ ID NO: 406 (EKVVERRQRR; cPEPabi5) | decreasing

Each substance was assayed on Botrytis cinerea (assay: Infection assay of A. thaliana leaves inoculated with B. cinerea). Conditions: 100 μM peptide, compared with plants treated with an irrelevant peptide.
Format: in vivo
Experimental: as §1
(a) Quantification of CPK3 expression, using CPK3 antibodies, in peptide-treated A. thaliana plants. (b-c) Infection assay of peptide-treated A. thaliana leaves inoculated with B. cinerea spores.
Wild-type or mutant A. thaliana leaves were sprayed daily with 100 μM of peptide or 100 μM of the corresponding scramble version for 3 days. Six hours after the last treatment, five mature leaves per plant were inoculated with a 5 μL droplet of 2.5×10^5 spores/mL of Botrytis cinerea strain B05.10 diluted in 100 μM of peptide or its corresponding scramble version. After inoculation, plants were maintained at 100% relative humidity. Then, a 2 μL droplet of 100 μM of peptide or 100 μM of the corresponding scramble version was deposited daily on B. cinerea-infected leaves for 3 days (until symptoms appeared). Leaves were removed from the plants to determine lesion areas using the ImageJ programme. For tomato, the protocol was the same except that inoculation was carried out with 5,000 B. cinerea spores, without peptides. Peptides were added 1 h after inoculation (1 μL of 500 μM) and each day for two days with 5 μL of 100 μM peptide. For infection of M. truncatula with A. euteiches, plants were grown on agar medium and treated with 10 μL of 100 μM peptide, 24 h before, 24 h and 72 h after infection with 10 μL (1000 spores) of A. euteiches spores. Plants were harvested 7 days after inoculation for RNA extraction.

Row | Substance | lesion size (plant defence against Botrytis cinerea)
9 | SEQ ID NO: 195 (IRLDTGEEPD; cPEPagb1) | decrease
10 | SEQ ID NO: 187 (KEPEQRKRKS; cPEPmapkkk3) | decrease
11 | SEQ ID NO: 162 (RSSKTELWTR; cPEPcpk3) | decrease
12 | SEQ ID NO: 188 (PLTGGRRDSK; cPEPmapkkk5_1) | decrease
13 | SEQ ID NO: 194 (ERKFRLHKSP; cPEPabcg34) | decrease
14 | cPEPjar1 (PETNFERDSS; cPEPjar1) [SEQ ID NO: 192, cPEP targeting the A. thaliana plant defence regulator JAR1] | decrease

The substances below were run on A. thaliana plants (assay: Flowering day of A. thaliana plants). Conditions: sprayed with 10 μM peptide three times a week until flowering.
Format: in vivo, Arabidopsis thaliana
Experimental: as §1
N. benthamiana plants were treated by spraying the leaves 24 h before harvesting. For Luc assays, 100 μL of MS/2 liquid medium containing the peptides was added to each well. 5 μL of luciferin was added and luciferase activity was read 30 min later using a spectrophotometer. All other assays were performed by spraying or watering the plants. To quantify the protein level induced by cPEPs in Arabidopsis, rosettes were sprayed daily with 100 μM of peptide or its control for 5 days. Leaves were harvested 6 h after the last treatment for western blot analysis. For the flowering assay and chlorophyll content, 10-day-old Arabidopsis plants were sprayed with 500 μL of 10 μM peptide three times a week until flowering. Chlorophyll content was measured using the SPAD chlorophylometer (Konica Minolta). Leaf area was measured using ImageJ software. Barbarea vulgaris and A. hypochondriacus seedlings were treated immediately after sowing and 3 times a week with 500 μL of a 20 μM mixture of each peptide. For western blotting, a heat shock was performed by placing 20-day-old plants grown in 24-well plates on MS/2 for 90 min at 37° C. before harvesting. The plants were treated with 100 μM of peptide for 24 h. For the heat shock resistance test on A. thaliana, 3-day-old seedlings were treated for three days with 100 μM of peptide before placing the plants at 45° C. for 45 min. The plants were placed in a growth chamber to recover and treated 24 h after heat shock with 100 μM of peptide. For soybean heat shock, one-week-old seedlings were treated for 48 h, 24 h and 30 min before being placed at 45° C. for 24 h. For soybean growth, seedlings were treated 3 times a week for a fortnight with 500 μL of 100 μM peptide.

Row | Substance | plant development, measured by the day of flowering
15 | SEQ ID NO: 182 (ASGNETDEYD; cPEPspt) | decrease
16 | SEQ ID NO: 186 (HGEARDSEEV; cPEPshr) | decrease
17 | SEQ ID NO: 199 (ARGLAYLHE; AhBAK1) | decrease
18 | SEQ ID NO: 183 (SDFSSKYRED; cPEPga2ox7) | decrease
19 | SEQ ID NO: 204 (NPVERSRHRD; cPEPein2_1) | decrease
20 | cPEPwus (RWTPTTEQIK; cPEPwus) [SEQ ID NO: 196] | decrease
21 | cPEPmrb1 (NSEITKTAND; cPEPmrb1) [SEQ ID NO: 180] | increased
22 | SEQ ID NO: 198 (RHRNLVRLQG; AhBRI1) | decrease
23 | SEQ ID NO: 184 (LRETDLKDRR; cPEPphyb) | decrease
24 | SEQ ID NO: 181 (NKGKTVEGWR; cPEPtap46) | decrease
25 | cPEPshy2 (EENRSELLQR; cPEPshy2) [SEQ ID NO: 178] | increased
26 | SEQ ID NO: 185 (VERRETPSGE; cPEPhag5) | decrease
